Measurements reported in publication PMC9754640, “Z-REX uncovers a bifurcation in function of Keap1 paralogs” (eLife, 2022).

Columns and labels:
[1] = biological target: T1, hKeap1 (Homo sapiens, UniProt Q14145); assay: Z-REX in zebrafish embryos, biotin-azide Click, streptavidin pulldown, western blot; details: covalent; alkyne-labelled compound released from Ht-PreDE (6 uM) in live embryos; also labelled by bolus DE
T1 construct: gene KEAP1; full-length, His6-HaloTag-TEV fusion (2xHA C-terminal in fish); TEV-cleaved after lysis, about 70 kDa; expressed in HEK293T cells or zebrafish embryos
T1 sequence (Q14145 whole entry, the tested form may be a part): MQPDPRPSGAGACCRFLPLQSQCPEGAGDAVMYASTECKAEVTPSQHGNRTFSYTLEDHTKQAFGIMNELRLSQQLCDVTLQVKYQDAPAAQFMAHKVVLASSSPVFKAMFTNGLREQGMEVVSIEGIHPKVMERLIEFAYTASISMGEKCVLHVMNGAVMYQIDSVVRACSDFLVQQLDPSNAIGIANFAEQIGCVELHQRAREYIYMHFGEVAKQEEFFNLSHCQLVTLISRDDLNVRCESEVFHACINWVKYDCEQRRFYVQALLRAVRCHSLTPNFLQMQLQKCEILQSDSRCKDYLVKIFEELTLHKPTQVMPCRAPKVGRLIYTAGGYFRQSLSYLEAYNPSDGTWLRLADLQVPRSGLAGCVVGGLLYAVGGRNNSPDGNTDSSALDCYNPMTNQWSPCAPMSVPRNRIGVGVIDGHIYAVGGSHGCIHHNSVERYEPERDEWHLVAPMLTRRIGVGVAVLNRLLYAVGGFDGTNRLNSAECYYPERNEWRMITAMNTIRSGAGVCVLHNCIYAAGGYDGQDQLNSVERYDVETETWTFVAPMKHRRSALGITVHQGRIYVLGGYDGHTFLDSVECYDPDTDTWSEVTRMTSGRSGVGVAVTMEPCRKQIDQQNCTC

[2] = biological target: T2, zKeap1b (Danio rerio, UniProt A0A2R8Q1W5); assay: T-REX photouncaging in HEK293T, TEV cleavage, Cy5-azide Click in-gel fluorescence; format: cell-based; details: covalent; alkyne-labelled compound released from Ht-PreNE bound to HaloTag (10 uM in legend, 25 uM in methods), live cells
T2 construct: gene keap1b; full-length, myc-HaloTag-TEV-3xFlag N-terminal fusion, TEV-cleaved after lysis; HEK293T expression
T2 sequence (A0A2R8Q1W5 1-593 isoform A0A2R8Q1W5-3): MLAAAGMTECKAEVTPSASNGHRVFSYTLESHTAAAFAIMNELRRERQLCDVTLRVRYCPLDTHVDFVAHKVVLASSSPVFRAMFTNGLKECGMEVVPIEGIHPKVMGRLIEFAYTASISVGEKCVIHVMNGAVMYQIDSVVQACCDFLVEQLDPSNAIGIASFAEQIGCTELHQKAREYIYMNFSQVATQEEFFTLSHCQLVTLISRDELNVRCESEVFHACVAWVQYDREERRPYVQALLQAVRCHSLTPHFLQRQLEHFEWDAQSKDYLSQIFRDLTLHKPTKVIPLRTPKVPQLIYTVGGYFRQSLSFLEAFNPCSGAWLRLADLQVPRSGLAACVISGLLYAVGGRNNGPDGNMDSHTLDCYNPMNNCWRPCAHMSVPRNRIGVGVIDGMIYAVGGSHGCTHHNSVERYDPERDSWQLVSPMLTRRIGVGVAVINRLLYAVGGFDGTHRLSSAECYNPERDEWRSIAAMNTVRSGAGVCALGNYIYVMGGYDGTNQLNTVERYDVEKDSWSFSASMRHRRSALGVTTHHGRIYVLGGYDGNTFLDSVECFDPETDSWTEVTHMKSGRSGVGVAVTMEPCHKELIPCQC

[3] = biological target: T3, zKeap1a (Danio rerio, UniProt Q1ECZ2); assay: as above; format: cell-based; details: covalent; alkyne-labelled compound released from Ht-PreNE bound to HaloTag (10 uM in legend, 25 uM in methods), live cells
T3 construct: gene keap1a; full-length, myc-HaloTag-TEV-3xFlag N-terminal fusion, TEV-cleaved after lysis; HEK293T expression
T3 sequence (Q1ECZ2 1-601): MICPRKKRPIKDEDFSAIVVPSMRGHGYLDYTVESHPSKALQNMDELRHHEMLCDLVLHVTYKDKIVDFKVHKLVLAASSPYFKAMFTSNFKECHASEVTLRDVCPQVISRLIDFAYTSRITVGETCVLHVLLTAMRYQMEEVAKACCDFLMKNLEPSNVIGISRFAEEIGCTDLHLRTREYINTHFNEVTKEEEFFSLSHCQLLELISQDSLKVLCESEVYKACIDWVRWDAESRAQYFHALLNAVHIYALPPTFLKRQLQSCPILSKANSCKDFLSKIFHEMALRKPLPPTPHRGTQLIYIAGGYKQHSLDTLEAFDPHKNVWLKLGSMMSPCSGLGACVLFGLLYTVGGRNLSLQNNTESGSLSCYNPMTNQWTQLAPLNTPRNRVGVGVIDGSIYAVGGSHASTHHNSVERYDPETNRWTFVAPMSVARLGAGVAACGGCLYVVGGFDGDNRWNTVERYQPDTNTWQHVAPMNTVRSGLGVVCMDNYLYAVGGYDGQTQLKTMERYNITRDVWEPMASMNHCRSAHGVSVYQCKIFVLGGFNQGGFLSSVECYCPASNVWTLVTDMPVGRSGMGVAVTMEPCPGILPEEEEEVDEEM

[4] = biological target: T1, hKeap1; assay: as above; format: cell-based; details: covalent; alkyne-labelled compound released from Ht-PreNE bound to HaloTag (10 uM in legend, 25 uM in methods), live cells
[5] = biological target: T4, hKeap1 (Homo sapiens, UniProt Q14145, C273I); assay: as above; format: cell-based; details: covalent; alkyne-labelled compound released from Ht-PreNE bound to HaloTag (10 uM in legend, 25 uM in methods), live cells
T4 construct: gene KEAP1; full-length, His6-HaloTag-TEV fusion (2xHA C-terminal in fish); TEV-cleaved after lysis, about 70 kDa; expressed in HEK293T cells or zebrafish embryos
T4 sequence (Q14145 whole entry C273I, the tested form may be a part): as the sequence (Q14145 whole entry, the tested form may be a part) above, with C273I counted along it

[6] = biological target: T1, hKeap1; assay: as above; format: cell-based; details: covalent; alkyne-labelled compound released from Ht-PreHNE bound to HaloTag (25 uM in methods), live cells
[7] = biological target: T2, zKeap1b; assay: as above; format: cell-based; details: covalent; alkyne-labelled compound released from Ht-PreHNE bound to HaloTag (25 uM in methods), live cells
[8] = biological target: T3, zKeap1a; assay: as above; format: cell-based; details: covalent; alkyne-labelled compound released from Ht-PreHNE bound to HaloTag (25 uM in methods), live cells
[9] = biological target: T4, hKeap1; assay: as above; format: cell-based; details: covalent; alkyne-labelled compound released from Ht-PreHNE bound to HaloTag (25 uM in methods), live cells

## C#CCCCC/C=C/C(C)=O [DE]
[1]
  Z-REX in zebrafish embryos, biotin-azide Click, streptavidin pulldown, western b: using DE as an example that hKeap1-labeling extent was similar to that achieved with HNE

## C#CCCCC/C=C/C=O [NE]
[2]
  targeting efficiency: zKeap1a/b, both of which sensed NE to the same extent
[3]
  targeting efficiency: zKeap1a/b, both of which sensed NE to the same extent
[4]
  targeting efficiency: hKeap1 and hKeap1(C273I) sensed NE marginally better than zKeap1a/b
[5]
  targeting efficiency: hKeap1 and hKeap1(C273I) sensed NE marginally better than zKeap1a/b

## C#CCCCC(O)/C=C/C=O (stereo not drawn) [HNE]
[6]
  T-REX photouncaging in HEK293T, TEV cleavage, Cy5-azide Click in-gel fluorescenc: all four proteins sensed HNE equally well
[7]
  T-REX photouncaging in HEK293T, TEV cleavage, Cy5-azide Click in-gel fluorescenc: all four proteins sensed HNE equally well
[8]
  T-REX photouncaging in HEK293T, TEV cleavage, Cy5-azide Click in-gel fluorescenc: all four proteins sensed HNE equally well
[9]
  T-REX photouncaging in HEK293T, TEV cleavage, Cy5-azide Click in-gel fluorescenc: all four proteins sensed HNE equally well
